Results published in patent US20250281633A1, “HER2 TARGETING FC ANTIGEN BINDING FRAGMENT-DRUG CONJUGATES” (MERCK PATENT GMBH, priority 2021, published 2025).

How the values were obtained:
FcRn = assay: KD [nM]
Excerpt: Errors are standard errors from fitting using FortéBio data analysis software 9.1. Fitting quality is characterized by R^2. Data is derived from BLI sensorgrams represented in FIG. 22 and FIG. 23.

[1] = tested on: HER2 positive (SKBR-3, HCC-1954) and HER2 negative (MDA-MB-468) cells; assay: Cellular binding analysis by flow cytometry; type: cell-based, human; details: 100 nM, 60 min, 4° C.
Method: Relative order of fluorescence intensity of distinct variants on HER2 positive cells correspond to their HER2 binding affinity. Cells were incubated with 100 nM of Fcab/antibody for 60 min at 4° C., washed twice with PBS-1% BSA, incubated for 30 min with 500 nM of AF488-labeled detection antibody (Jackson ImmunoResearch) at 4° C. in darkness, washed twice with PBS-1% BSA, and finally fluorescence intensity was measured applying an Attune NxT flow cytometer (Invitrogen™).

Row | Kd (FcRn) | Substance | cellular binding to HCC-1954 cells (in words) [1]
1 | 0.524 ± 0.013 µM | huFc: native human Fc-based negative control [listing 1 of 2 here] | –
2 | – | huFc: native human Fc-based negative control [listing 2 of 2 here] | binds only slightly
